According to publication PMC12024912, “Druggability Studies of Benzene Sulfonamide Substituted Diarylamide (E3) as a Novel Diuretic” (Biomedicines, 2025):
Entries after “also recorded” stand apart in the source; their conditions may differ. Where two headings read alike, the source gives them in different places.

Experiments:
Blood stability, rabbit = assay type: in vitro ADME; details: plasma, n=3
Experimental: (§1) Plasma from mice, rats, rabbits, and humans was obtained from blood after centrifugation at 3000 r/min for 10 min. Simulated gastric fluid (SGF, pH = 1, containing pepsin) and simulated intestinal fluid (SIF, pH = 6.8, containing trypsin) were configured previously in the experiments. SD rats and mice were collected, and after removing the mucus layer from the small intestine and colon, 20 times the volume of liquid bacterial culture medium was added. An intestinal microbiota suspension was obtained after anaerobic cultivation on a shaking table at 37 °C for 12 h. In the aforementioned systems, E3 was added at a final concentration of 1 μmol/L at 37 °C for different incubation times (0, 10, 20, 30, 60, 120, and 240 min). In liver metabolic stability assays, E3 was incubated with liver microsomes or liver homogenate from mice or rats for 60 min at 37 °C. The stop solution, 5 ng/mL tolbutamide (internal standard, IS) in acetonitrile, was added to stop the metabolic process. Post-centrifugation (18,000× g, 10 min, 4 °C), supernatants were subjected to liquid chromatography–tandem mass spectrometry (LC–MS/MS). Analyte-to-IS peak area ratios quantified residual percentages via Equation (2):Remaining% = (E3peak area/ISpeak area at different time)/(E3peak area/ISpeak area at 0 min) × 100%.(2)

[1] = Intestinal microbiota stability, mouse; assay type: in vitro ADME
Experimental: as §1

[2] = Liver microsome metabolic stability, rat; assay type: in vitro ADME; details: 60 min incubation, 37 °C
Experimental: as §1

[3] = Liver homogenate metabolic stability, mouse; assay type: in vitro ADME
Experimental: as §1

[4] = Tissue distribution study in rats; assay type: in vivo, rat
Experimental: Male SD rats were randomly divided into four groups and received a single oral dose of E3 at 4 mg/kg. Blood and tissue samples (i.e., heart, liver, kidney, spleen, lung, brain, testis, skin, muscle, leg bone, stomach, small intestine, and colon) were collected at 0.5 h, 2 h, 6 h, and 24 h after dosing. Tissues were perfused with cold saline, blotted, weighed, and homogenized (10 vol/wt ice-cold H2O; T10 homogenizer, IKA, Staufen, Germany). The rats’ right shin bone was decalcified in methanol (4 °C, 12 h). Processed samples (−80 °C storage) underwent LC-MS/MS analysis as described.
The analyte E3 and IS were dissolved in DMSO to generate the stock solutions. The working calibration of E3 was gradient-diluted with MeOH/H2O (1:1, v/v). Three microliters of working solutions were spiked with 27 μL of the blank rat plasma to establish the calibration standards. The final concentrations of the standard samples were 1, 2, 5, 10, 50, 250, 500, and 1000 ng/mL. Quality control samples (3/100/800 ng/mL) were prepared using identical protein precipitation protocols. Briefly, 30 μL calibrators and biological matrices were mixed with 450 μL stop solution, vortexed (5 min), and centrifuged (18,000× g, 10 min, 4 °C). Processed supernatants (2 μL injection volume) were subjected to LC-MS/MS analysis.
The analysis was conducted by an Xevo TQ-S Cronos Triple Quadrupole Mass Spectrometer coupled with an ACQUITY UPLC (Waters Corp, Milford, MA, USA). The chromatographic separation was conducted in an ACQUITY UPLC BEH C18 1.7 µm column (Waters, Milford, MA, USA) at 40 °C with a flow rate of 0.4 mL/min. The mobile phases were 0.1% (v/v) formic acid in water (A) and pure ACN (B). […] An electrospray ionization (ESI) source with multiple–reaction monitoring (MRM) in positive–ion mode was employed to quantify the analytes with the transitions of m/z 385.11 > 244.19 and m/z 271.136 > 91.01 for E3 and IS, respectively. The optimized cone voltage is 10 V and 24 V for E3 and IS, respectively. The collision energy is 12 V and 32 V for E3 and IS, respectively. MassLynx v4.2 (Waters Corp, Milford, MA, USA) was used for data acquisition and analysis.

[5] = Subacute oral toxicity test in mice; assay type: in vivo; details: male, mouse, in vivo, 1000 mg/kg, oral, 30 d, read-out: no observed adverse effect level (NOAEL)
Experimental: (§2) The subacute oral toxicity test was performed according to “Guidance on Repeated Dose Toxicity Study for Pharmaceuticals” (2014). […] Eighteen male mice were evenly divided into two groups. Mice of the control group were orally administered with solvent (0.5% CMC-Na). Another group was orally administered with E3 1000 mg/kg. The solvent or E3 was administered once a day for 30 continuous days and withdrawn for 14 d for recovery. After the 30-day treatment, 12 mice (6/group) were chosen at random and sacrificed for necropsy.
(§3) During the study, the clinical symptoms, morbidity, and mortality of mice were observed twice a day at the side of the cage. Changes in appearance, behavior, appetite, gait, secretions, and excretions of the rats were meticulously documented. The body weights were measured before the start of the experiment, and the weights were measured every 2 d thereafter. Echocardiography was performed and evaluated every 10 d. Under anesthesia, blood samples were taken before the autopsy for hematological and clinical biochemistry analysis by an automated hematology analyzer (HEMAVET 950FS, Drew Scientific, TX, USA) and an automated biochemical analyzer (BS-180, Mindray Diagnostics, Shenzhen, China). The following organs were weighed: heart, liver, kidney, spleen, lung, thymus gland, testis, and brain. Furthermore, the corresponding organ/body weight ratio was computed. A comprehensive histopathological analysis was performed on vital tissues and organs.

mice = test: Subacute oral toxicity test in mice; assay type: in vivo
Experimental: as §2, §3

[6] = Intestinal microbiota stability (colon and small intestine), rats and mice together; assay type: in vitro ADME, SD rats and mice; details: after 4 h
Experimental: as §1

Question: For CC(=O)c1ccc(C(=O)Nc2cccc(NS(=O)(=O)c3ccccc3)c2)o1 [Compound E3, 5-acetyl-N-(3-(phenylsulfonamido)phenyl)furan-2-carboxamide], which remaining at 1 μmol/L (Blood stability, rabbit) is on record?
Answer: 35.7%

Question: And the remaining at 4 h, 1 μmol/L ([1]; colon microbiota suspension, n=3, read-out: Mouse colon microbiota (remaining %))?
Answer: 89.3%

Question: What about the remaining at 4 h, 1 μmol/L ([1]; small intestine microbiota suspension, n=3, read-out: Mouse small intestine microbiota (remaining %)) of the same compound?
Answer: 87.3%

Question: And the “remaining amount, rat liver microsomes” value [2]?
Answer: 61.1%

Question: And the “CLhep, mouse liver homogenate” value ([3]; calculated with 45 mg/g liver, 50 g liver/kg)?
Answer: 99.3 mL/min/kg

Question: And the remaining at 1 h ([3]; mouse, liver homogenate, 60 min incubation, 37 °C, n=3)?
Answer: 39.8%

Question: What about the “permeability to the blood–brain barrier (BBB) and blood–testis barrier (BTB)” value ([4]; inferred from tissue distribution) of the same compound?
Answer: lower permeability; also recorded: low permeability

Question: What about the “concentration in kidney relative to other tissues” value ([4]; single oral 4 mg/kg) of the same compound?
Answer: highest concentration

Question: What about the “distribution in the brain, testis” value ([4]; single oral 4 mg/kg) of the same compound?
Answer: relatively low distribution

Question: And the “time of peak drug concentration in most tissues” value ([4]; single oral 4 mg/kg, post-administration)?
Answer: 2 h

Question: What about the NOAEL at 30 d [5] of the same compound?
Answer: 1000 mg/kg/day

Question: And the “appearance, behavior, secretions, and excretions” value (mice; 1000 mg/kg daily oral, 30 days)?
Answer: no apparent abnormality

Question: And the “body weight or organ indexes” value (mice; 1000 mg/kg daily oral, 30 days)?
Answer: no significant change

Question: What about the “histopathology of brain, lung, heart, spleen, liver, kidney, testis” value (mice; 1000 mg/kg daily oral, 30 days) of the same compound?
Answer: No histopathological toxic lesion

Question: And the “blood parameters and blood biochemical indexes” value (mice; 1000 mg/kg daily oral, 30 days, vs control)?
Answer: no significant changes

Question: And the “left ventricular ejection fraction and fractional shortening (cardiac ultrasound)” value (mice; 1000 mg/kg daily, during and after administration)?
Answer: no significant abnormality

Question: And the EOS (mice; 1 g/kg, 30 d, mean, n=9)?
Answer: 0.13%

Question: And the HB (mice; 1 g/kg, 30 d, mean, n=9)?
Answer: 80.11 g/L

Question: What about the HCT (mice; 1 g/kg, 30 d, mean, n=9) of the same compound?
Answer: 41.04%

Question: And the LYM (mice; 1 g/kg, 30 d, mean, n=9)?
Answer: 74.12%

Question: And the MCH (mice; 1 g/kg, 30 d, mean, n=9)?
Answer: 9.96 pg

Question: What about the MCHC (mice; 1 g/kg, 30 d, mean, n=9) of the same compound?
Answer: 195.33 g/L

Question: And the MCV (mice; 1 g/kg, 30 d, mean, n=9)?
Answer: 51.09 fL

Question: What about the MONO (mice; 1 g/kg, 30 d, mean, n=9) of the same compound?
Answer: 3.02%

Question: What about the MPV (mice; 1 g/kg, 30 d, mean, n=9) of the same compound?
Answer: 3.01 fL

Question: What about the NEU (mice; 1 g/kg, 30 d, mean, n=9) of the same compound?
Answer: 22.71%

Question: What about the PLT (mice; 1 g/kg, 30 d, mean, n=9) of the same compound?
Answer: 1313.22 109/L

Question: And the RBC (mice; 1 g/kg, 30 d, mean, n=9)?
Answer: 8.03 1012/L

Question: And the RDW (mice; 1 g/kg, 30 d, mean, n=9)?
Answer: 16.07%

Question: And the WBC (mice; 1 g/kg, 30 d, mean, n=9)?
Answer: 8.37 109/L

Question: What about the “delayed toxicity (14 d recovery period)” value (mice; after 30 d of 1000 mg/kg) of the same compound?
Answer: no delayed toxicity

Question: What about the “E3 remaining with intestinal microbiota (colon and small intestine)” value [6] of the same compound?
Answer: over 82%
